Test results reported in the supplement of paper PMC11061612.

Assays:
Test in all cases: combination Emax (second highest fraction inhibited in the dose matrix, 72 h); higher = more inhibition; extreme values may be limits of the assay
ACHN (Kidney Carcinoma) = system: ACHN (Kidney Carcinoma)
Outline: (§1)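 Cell lines grown in DMEM/F12 or RPMI with 10% FBS were plated in 1536-well plates and held 24 hours at 37°C, 5% CO2 before 72 hours of exposure to two-drug dose matrices, with DMSO typically at 0.2%. CellTiter-Glo 2.0 luminescence gave viability, which was converted to inhibition. Vehicle wells were set to 0 and blank wells to 1. Combination Emax is the second-highest inhibition in the matrix, and Bliss excess is the observed combination effect minus the expected EA + EB − EA·EB, where EA and EB are the single-agent effects.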

[1] = system: AMO-1 (Plasma Cell Myeloma)
Outline: as §1

[2] = system: BT-549 (Breast Carcinoma)
Outline: as §1

[3] = system: Ca9-22 (Head and Neck Carcinoma)
Outline: as §1

[4] = system: Caov-4 (Ovarian Carcinoma)
Outline: as §1

D-263MG (Glioblastoma) = system: D-263MG (Glioblastoma)
Outline: as §1

EW-24 (Ewing's Sarcoma) = system: EW-24 (Ewing's Sarcoma)
Outline: as §1

[5] = system: EoL-1-cell (Acute Myeloid Leukemia)
Outline: as §1

[6] = system: KARPAS-299 (T-Cell Non-Hodgkin's Lymphoma)
Outline: as §1

[7] = system: KYSE-450 (Esophageal Squamous Cell Carcinoma)
Outline: as §1

[8] = system: MIA-PaCa-2 (Pancreatic Carcinoma)
Outline: as §1

[9] = system: MLMA (Other Blood Carcinomas)
Outline: as §1

NB69 (Neuroblastoma) = system: NB69 (Neuroblastoma)
Outline: as §1

[10] = system: NCI-H358 (Lung Adenocarcinoma)
Outline: as §1

[11] = system: PANC-04-03 (Pancreatic Carcinoma)
Outline: as §1

[12] = system: RF-48 (B-Cell Non-Hodgkin's Lymphoma)
Outline: as §1

[13] = system: SW13 (Other Solid Carcinomas)
Outline: as §1

TGW (Neuroblastoma) = system: TGW (Neuroblastoma)
Outline: as §1

TK10 (Kidney Carcinoma) = system: TK10 (Kidney Carcinoma)
Outline: as §1

YH-13 (Glioblastoma) = system: YH-13 (Glioblastoma)
Outline: as §1

Structure (SMILES) | combination Emax (ACHN (Kidney Carcinoma)) | combination Emax [1] | combination Emax [2] | combination Emax [3] | combination Emax [4] | combination Emax (D-263MG (Glioblastoma)) | combination Emax (EW-24 (Ewing's Sarcoma)) | combination Emax [5] | combination Emax [6] | combination Emax [7] | combination Emax [8] | combination Emax [9] | combination Emax (NB69 (Neuroblastoma)) | combination Emax [10] | combination Emax [11] | combination Emax [12] | combination Emax [13] | combination Emax (TGW (Neuroblastoma)) | combination Emax (TK10 (Kidney Carcinoma)) | combination Emax (YH-13 (Glioblastoma))
Cc1cc2ncnn2cc1Nc1ncc2c(n1)n(C1CCOCC1)c(=O)n2C [AZD7648] + CN(C)CCCOc1ccc(-c2ccc3ncc4c(c3c2)n(C2CCOCC2)c(=O)n4C)cn1 [AZD0156] (first compound max 10 µM, 7x7, partner max 1 µM) | 0.293 | 0.431 | 0.254 | 0.226 | 0.344 | 0.25 | 0.364 | 0.238 | 0.237 | 0.252 | 0.401 | 0.671 | 0.565 | 0.349 | 0.347 | 0.349 | 0.39 | 0.351 | 0.442 | 0.345
Cc1cc2ncnn2cc1Nc1ncc2c(n1)n(C1CCOCC1)c(=O)n2C [AZD7648] + COc1cc([C@@H]2c3cc4c(cc3[C@@H](O[C@@H]3O[C@@H]5CO[C@@H](C)O[C@H]5[C@H](O)[C@H]3O)[C@H]3COC(=O)[C@H]23)OCO4)cc(OC)c1O [Etoposide] (first compound max 10 µM, 7x7, partner max 10 µM) | 0.772 | 0.942 | 0.736 | 0.869 | 0.744 | 0.618 | 0.714 | 1 | 0.976 | 0.459 | 0.945 | 0.816 | 0.946 | 0.628 | 0.335 | 0.755 | 0.86 | 0.522 | 0.592 | 0.641
Cc1cc2ncnn2cc1Nc1ncc2c(n1)n(C1CCOCC1)c(=O)n2C [AZD7648] + C[C@@H]1COCCN1C2=NC(=NC(=C2)C3(CC3)[S@](=N)(=O)C)C4=C5C=CNC5=NC=C4 [AZD6738] (first compound max 10 µM, 7x7, partner max 10 µM) | 0.888 | 0.862 | 0.441 | 0.919 | 0.916 | 0.647 | 0.61 | 0.967 | 0.927 | 0.593 | 0.592 | 0.67 | 0.865 | 0.606 | 0.522 | 0.528 | 0.499 | 0.739 | 0.753 | 0.656
Cc1cc2ncnn2cc1Nc1ncc2c(n1)n(C1CCOCC1)c(=O)n2C [AZD7648] + O=C(c1cc(Cc2n[nH]c(=O)c3ccccc23)ccc1F)N1CCN(C(=O)C2CC2)CC1 [Olaparib] (first compound max 10 µM, 7x7, partner max 10 µM) | 0.211 | 0.196 | 0.18 | 0.113 | 0.199 | 0.094 | 0.214 | 0.42 | 0.151 | 0.0972 | 0.22 | 0.279 | 0.541 | 0.279 | 0.183 | 0.322 | 0.203 | 0.344 | 0.234 | 0.16
Cc1nc(Nc2ncc(C(=O)Nc3c(C)cccc3Cl)s2)cc(N2CCN(CCO)CC2)n1 [Dasatinib] + CC(=O)Nc1cccc(-n2c(=O)n(C3CC3)c(=O)c3c(Nc4ccc(I)cc4F)n(C)c(=O)c(C)c32)c1 [Trametinib] (first compound max 2 µM, 7x7, partner max 1 µM) | 0.749 | 0.405 | 0.436 | 0.878 | 0.743 | 0.761 | 0.171 | 1 | 0.427 | 0.382 | 0.894 | 0.675 | 1 | 0.69 | 0.781 | 0.414 | 0.716 | 0.273 | 0.766 | 0.784
COc1cc2ncnc(Nc3ccc(F)c(Cl)c3)c2cc1OCCCN1CCOCC1 [Gefitinib] + CC(C)n1c(=O)n(C)c2cnc3cc(F)c(-c4ccc(OCCCN5CCCCC5)nc4)cc3c21 [AZD1390] (first compound max 10 µM, 7x7, partner max 0.3 µM) | 0.551 | 0.323 | 0.0893 | 0.625 | 0.171 | 0.132 | 0.189 | 0.571 | 0.14 | 0.338 | 0.208 | 0.33 | 0.369 | 0.536 | 0.347 | 0.244 | 0.724 | 0.0238 | 0.445 | 0.145
COc1cc2c(cc1OCCCCCOc1cc3c(cc1OC)C(=O)N1C=C(C)C[C@H]1C=N3)N=C[C@@H]1CC(C)=CN1C2=O [SG3199] + O=C(c1cc(Cc2n[nH]c(=O)c3ccccc23)ccc1F)N1CCN(C(=O)C2CC2)CC1 [Olaparib] (first compound max 0.001 µM, 7x7, partner max 10 µM) | 0.0891 | 0.0932 | 0.095 | 0.0924 | 0.165 | 0.0915 | 0.196 | 0.319 | 0.0832 | 0.0761 | 0.168 | 0.164 | 0.444 | 0.0868 | 0.114 | 0.266 | 0.0899 | 0.166 | 0.0517 | 0.16
N#Cc1cnc(Nc2cc(NC[C@H]3CNCCO3)c(C(F)(F)F)cn2)cn1 [SRA737] + C=CCn1c(=O)c2cnc(Nc3ccc(N4CCN(C)CC4)cc3)nc2n1-c1cccc(C(C)(C)O)n1 [AZD1775] (first compound max 10 µM, partner max 1 µM) | 0.865 | 0.967 | 0.804 | 0.957 | 0.854 | 0.575 | 0.639 | 1 | 0.966 | 0.906 | 0.911 | 0.826 | 0.969 | 0.763 | 0.543 | 0.467 | 0.218 | 0.922 | 0.653 | 0.812
N#Cc1cnc(Nc2cc(NC[C@H]3CNCCO3)c(C(F)(F)F)cn2)cn1 [SRA737] + CCc1c2c(nc3ccc(O)cc13)-c1cc3c(c(=O)n1C2)COC(=O)[C@]3(O)CC [SN-38] (first compound max 10 µM, 7x7, partner max 0.3 µM) | 0.893 | 0.967 | 0.75 | 0.954 | 0.9 | 0.823 | 0.768 | 0.994 | 0.999 | 0.94 | 0.942 | 0.77 | 0.991 | 0.8 | 0.57 | 0.769 | 0.948 | 0.714 | 0.682 | 0.832
N#Cc1cnc(Nc2cc(NC[C@H]3CNCCO3)c(C(F)(F)F)cn2)cn1 [SRA737] + Nc1ccn([C@@H]2O[C@H](CO)[C@@H](O)C2(F)F)c(=O)n1 [Gemcitabine] (first compound max 10 µM, 7x7, partner max 0.3 µM) | 0.821 | 0.974 | 0.715 | 0.867 | 0.856 | 0.734 | 0.691 | 1 | 0.998 | 0.83 | 0.951 | 0.818 | 0.983 | 0.665 | 0.597 | 0.746 | 0.944 | 0.861 | 0.549 | 0.813
N#Cc1cnc(Nc2cc(NC[C@H]3CNCCO3)c(C(F)(F)F)cn2)cn1 [SRA737] + O=c1[nH]cc(F)c(=O)[nH]1 [5-Fluorouracil] (first compound max 10 µM, 7x7, partner max 20 µM) | 0.781 | 0.882 | 0.711 | 0.606 | 0.749 | 0.35 | 0.585 | 0.994 | 0.996 | 0.379 | 0.252 | 0.77 | 0.805 | 0.631 | 0.474 | 0.566 | 0.0967 | 0.693 | 0.551 | 0.542
C[C@@H](c1ccc2nccn2c1)n1nnc2ncc(-c3cnn(C)c3)nc21 [Savolitinib] + CC1(C)CCC(CN2CCN(c3ccc(C(=O)NS(=O)(=O)c4ccc(NCC5CCOCC5)c([N+](=O)[O-])c4)c(Oc4cnc5[nH]ccc5c4)c3)CC2)=C(c2ccc(Cl)cc2)C1 [Venetoclax] (first compound max 1 µM, 7x7, partner max 1 µM) | 0.127 | 0.326 | 0.113 | 0.193 | 0.12 | 0.158 | 0.172 | 0.86 | 0.169 | 0.0763 | 0.164 | 0.157 | 0.372 | 0.128 | 0.202 | 0.384 | 0.139 | 0.313 | 0.106 | 0.237
C[C@@H](c1ccc2nccn2c1)n1nnc2ncc(-c3cnn(C)c3)nc21 [Savolitinib] + Cc1c2c(nn1C)CSCc1cc(n(C)n1)CSc1cc(c3ccccc3c1)OCCCc1c(C(=O)O)n(C)c3c-2c(Cl)ccc13 [AZD5991] (first compound max 1 µM, 7x7, partner max 1 µM) | 0.174 | 1 | 0.225 | 0.143 | 0.421 | 0.366 | 0.196 | 1 | 0.936 | 0.115 | 0.204 | 0.33 | 0.74 | 0.108 | 0.165 | 0.275 | 0.735 | 0.214 | 0.116 | 0.276
